Measured values as given in patent US10300027B2, “Effective sensitizing dose of a gelled immunomodulating topical composition” (Phio Pharmaceuticals Corp., priority 2010, dated 2019).
Several values for one entry are separate records, joined by “and”; a condition that tells them apart may be missing. Identical values can stand only once.

Tests used:
non-genital warts [1] = assay: Example 1: randomized, double-blind, placebo control study of low dose DPCP gel for non-genital warts; format: in vivo, human
Method: Patients were initially sensitized with 0.4% DPCP gel at the primary wart site. Approximately 14 days later and weekly thereafter for various periods, a challenge dose is then applied. A challenge dose of 0.04% DPCP was employed. The DPCP used was incorporated in a unique blend of surfactants, a viscosity agent, and a preservative.
A single center, randomized, double-blind, placebo control study using low dose DPCP in a non-volatile vehicle for the treatment of non-genital warts was conducted. Patients were assigned to a treatment or placebo group in a 2:1 fashion. The two study gels were identical in appearance. The treatment group was sensitized with 0.1 ml of 0.4% DPCP gel which was applied to the inner arm and washed off in 24 hours. Fourteen days after the sensitization dose, 0.1 ml of 0.04% DPCP gel was applied to each wart, up to a total of 4 warts, for 7 consecutive weeks (Day 14, 21, 28, 35, 42, 49, 56). A final follow-up examination was performed on day 70. Patients were assessed at baseline and during each of 7 week treatment visits and on day 70 follow up.
Efficacy was based on Lesion Surface Area. The size of each qualifying verruca wart was determined at each visit by measuring the longest dimension (long axis) and the corresponding widest dimension (90 to the long axis).
Immunotherapeutic responses were characterized by grading the erythema, edema, induration, and scaling on a four-point scale: 0 (none) to 4 severe at each visit.
Efficacy endpoints were determined based on the percent of patients achieving complete and partial eradication as measured by IGAS and reductions in warts lesion surface area. Subjects were assessed for the extent of their immunotherapeutic response to treatment based upon the degree of erythema, edema, induration and scaling. Safety was evaluated at each visit by recording and grading adverse events and ease of ambulation 4 point grading system was used.
Adults 18-75 years of age in general good health with at least one non-genital cutaneous wart 5-20 mm in size were eligible for participation in the study. […] Pregnant or nursing women were excluded. Patients with unstable medical condition or history of immunosuppression were excluded. Use of systemic steroids, immunosuppressants, immunomodulators or cimetidine was not allowed for 4 weeks prior to enrollment. Any prior wart therapy was not allowed for 4 weeks. […] Patients could not be actively enrolled in another clinical trial within the previous 30 days.

non-genital warts [2] = assay: Example 2: randomized, double-blind, placebo control study, 0.04% DPCP gel twice a week for non-genital warts; format: in vivo, human; parameters: key to Clearance Score: 3 points=Complete clearance; 2 points=partial clearance: >50% reduction in the area of all treated wart; 1 point=partial eradication: <50% reduction in the area of all treated warts; 0 points=treatment failure: complete or partial eradication not achieved; conditions: for Clearance Score: per wart of one subject
Method: Institutional review board approval was obtained for this study, which was performed using Good Clinical Practice Guidelines and was compliant with the Code of Federal Regulation of the US Food and Drug Administration. A single center, 24 subject, randomized, double-blind, placebo control study using low dose DPCP in a non-volatile vehicle for the treatment of non-genital warts of established.
Patients are assigned to a treatment or placebo group in a 2:1 fashion. The two study gels are identical in appearance. Both groups are sensitized with 0.1 ml of 0.4% DPCP gel which is applied to the inner arm and washed off in 24 hours. Fourteen days after the sensitization dose, 0.1 ml of 0.04% DPCP gel or placebo is applied to each wart, up to a total of 4 warts, […] for 7 consecutive weeks (Day 14, 21, 28, 35, 42, 49, 56, […]). A final follow-up examination is performed on day 77. Patients are assessed at baseline and during office visits on days 14, 28, and 63 and on the day 77 follow up visit.
Efficacy is based on Lesion Surface Area. The size of each qualifying verruca wart is determined at each visit by measuring the longest dimension (long axis) and the corresponding widest dimension (90 to the long axis).
Investigator's Global Assessment Score (IGAS) is calculated based upon the following 4 point scale: 3 points=Complete clearance; 2 points=partial clearance: >50% reduction in the area of all treated wart; 1 point=partial eradication: <50% reduction in the area of all treated warts; 0 points=treatment failure: complete or partial eradication not achieved.
Immunotherapeutic responses are characterized by grading the erythema, edema, induration, and scaling on a four-point scale: 0 (none) to 4 severe at each visit.
Efficacy endpoints are determined based on the percent of patients achieving complete and partial eradication as measured by IGAS and reductions in warts lesion surface area. Subjects are assessed for the extent of their immunotherapeutic response to treatment based upon the degree of erythema, edema, induration and scaling. Safety is evaluated at each visit by recording and grading adverse events and ease of ambulation 4 point grading system is used.
All subjects (both treated and placebo groups) are sensitized with the initial sensitizing dose of 0.4% DPCP gel applied directly to one target wart and to the inner aspect of the right arm and then covered with an occlusive adhesive bandage pad for 24 hours.
The Investigator can determine if sensitization occurred at either of the application sites. If on day 14, the first “treatment visit”, no visible evidence of skin sensitization is observed then the subject can be dropped from the study. If on day 14 the investigator determines that sensitization has occurred, than the first treatment dose using the challenge dose (0.04% DPCP gel or placebo) randomly assigned upon enrollment can be administered by the investigator to all target warts and then covered with an occlusive adhesive bandage pad for 24 hours.
The patient is provided with a tube containing the appropriate challenge product (0.04% DPCP gel or placebo) with detailed instructions on how to apply the product two times per week and the proper handling and storage of the product between applications.
Two times per week the patient can apply the treatment dose (0.04% DPCP gel or placebo) to all target warts and then cover with an occlusive adhesive bandage pad for 24 hours.
The Investigator can apply the treatment dose (0.04% DPCP gel or placebo) to all target warts and then cover with an occlusive adhesive bandage pad for 24 hours.
The Investigator can apply the treatment dose (0.04% DPCP gel or placebo) to all target warts and then cover with an occlusive adhesive bandage pad for 24 hours. […] This is the final treatment. The patient is instructed to stop at home treatments and should return any unused gel. […]

[3] = general statement, no test described; cited from earlier work
[4] = 0.4% sensitizing dose, 0.04% challenge dose weekly
[5] = 0.4% sensitizing dose, 0.04% challenge dose twice a week

**Q.** What does the source list for `O=c1c(-c2ccccc2)c1-c1ccccc1` [DPCP, diphenylcyclopropenone]?
**A.** side effects reported (non-genital warts [1]; [4]): No significant side effects were reported other than skin rash at the sensitization site; tolerability reported by patients (non-genital warts [1]; [4]): highly tolerable; subjects who obtained a clinical response/improvement (non-genital warts [1]; DPCP group, 8 subjects, 0.4% sensitizing dose, then 0.04% gel weekly for 7 weeks): 100%; warts with complete clearance (non-genital warts [1]; DPCP group, 11 of 25 warts, vs 1 of 15 vehicle treated warts, p=0.01): 44%; warts with partial to complete clearance (non-genital warts [1]; DPCP group, 19/25 warts, 0.4% sensitizing dose, then 0.04% gel weekly for 7 weeks): 76%; severe reactions at the application site (non-genital warts [1]; challenge dose of 0.04% DPCP after 0.4% sensitizing dose): did not result in observable severe reactions at the application site; surrounding untreated warts completely cleared (non-genital warts [1]; one subject with numerous mosaic warts on the plantar foot, the 4 treated warts also completely cleared): > 50; sensitization (non-genital warts [2]; 0.4% DPCP sensitization dose given to both treatment and placebo group, 7 subjects): all were successfully sensitized; side effects reported (non-genital warts [2]; [5]): No significant side effects were reported other than skin rash at the sensitization site; tolerability reported by patients (non-genital warts [2]; [5]): highly tolerable; treated warts that achieved greater than 50% clearance (non-genital warts [2]; DPCP group, 1 of 6 warts): 16%; treated warts that exhibited no clearance (non-genital warts [2]; DPCP group, 1 of 6 warts): 16%; treated warts with complete clearance (non-genital warts [2]; DPCP group, 4/6 warts, 0.04% gel twice a week): 67%; subjects who obtained a clinical response/improvement (non-genital warts [2]; DPCP group, 4 of 5 subjects, 0.04% gel twice a week for 7 weeks): 80%; Clearance Score (non-genital warts [2]; at 5 weeks, 0.04% gel twice a week): 5 weeks + 3; Clearance Score (non-genital warts [2]; at 7 weeks, 0.04% gel twice a week, listed as DPC): 7 weeks 0 and 7 weeks + 3 (3×) and 7 weeks + 2 (2 points=partial clearance: >50% reduction in the area of all treated wart); mutagenicity, teratogenicity and organ toxicity [3]: not mutagenic, teratogenic and has no organ toxicity
